Measured values as given in patent EP3006026A1, “PHARMACEUTICAL COMPOSITION FOR TREATING ANXIETY CONTAINING L-THEANINE AND BAICALEIN” (FB HEALTH S.P.A., priority 2014, dated 2016).

What was measured:
[1] = tested on: murine model of anxiety; experiment: elevated maze plus (EPM) test, murine model of anxiety; type: in vivo, mice; settings: 60 minutes prior to maze; for time in percentage on the open arms: 10 mg/kg p.o.; for percentage of time spent on the closed arms: compared to the control, 6 minutes observation
Description: The activity of a combination of L-theanine and baicalein was tested in a murine model of anxiety.
The mice were assigned randomly to different treatment groups and subjected to tests in a variable order.
Diazepam (Hoffmann - La Roche) was used as reference product. The diazepam was diluted to a concentration of 1.5 mg/10 ml with deionised water (Millipore quality) containing propylene glycol 0.5% (Sigma-Aldrich). Two different doses (10 mg/kg and 25 mg/kg) of bot. baicalein and L-theanine were prepared dissolving the powder in 10 ml of deionised water with propylene glycol 0.5%. All the solutions were prepared the same day as the tests and administered orally (p.o.) in a volume of 10 ml/kg by body weight of the mice. The control animals received a solution of propylene glycol 0.5%.
The animals of the experiment were treated orally with a carrier, diazepam (1.5 mg/kg, n=8), L-theanine (10 mg/kg, 25 mg/kg, n=8), baicalein (10 mg/kg, 25 mg/kg, n=8) or L-theanine + baicalein, in a ratio 1/1 (10 mg/kg, 25 mg/kg, n=8), 60 minutes prior to evaluation in the maze.
Anxiolytic activity was evaluated using the elevated maze plus (EPM) test. [ ]. The maze was composed of two open arms (31 cm x 5 cm x 1 cm) and two closed arms (31 cm x 5 cm x 15 cm) that extended from a central platform (5 cm x 5 cm) raised to a height of 40 cm from the floor. On the wooden base frame, the closed arms were made of opaque grey plastic, while the open arms were made of the same material with only one slightly raised edge. The EPM was indirectly illuminated by three 40W bulbs.
(§1) The mice were placed individually at the centre of the maze facing a closed arm and the number of entries and the time spent in the closed and open arms during an observation period of 6 minutes was recorded. Entries to the arms were defined as the entry of all four paws into an arm [ ]. The time in percentage spent on the open arms (100 x open/total time) was calculated for each animal. We also used the open field test to evaluate possible sedative or stimulating activity of the animals [ ]. The open field consisted of a rectangular opaque grey plastic arena (width 30 cm, length 27 cm, height 30 cm) and was illuminated by six 40W bulbs. The floor of the arena was divided into 6 equidistant rectangles to evaluate the number of times the lines were crossed. Groups of 8 mice were treated with diazepam (1.5 mg/kg, 3 mg/kg p.o.), L-theanine (25 mg/kg, 50 mg/kg n=8), baicalein (25 mg/kg, 50 mg/kg, n=8) or L-theanine + baicalein, in a 1/1 ratio (25 mg/kg, 50 mg/kg, n=8) or a carrier (deionised water with propylene glycol at 0.5% p.o.). All the solutions contained propylene glycol at 0.5% as solubilising substance for diazepam. 60 minutes after oral administration, each mouse was placed at the centre of the arena and recorded for 5 minutes.
The EPM and the open field test were both video recorded using a high resolution video camera WV-CP244 (Panasonic).
Statistical analysis of the data was performed using one-way analysis of variance (ANOVA) followed by the Student-Newman-Keuls multiple comparison test. In all cases the differences were considered significant if p < 0.05.

[2] = tested on: mice; experiment: open field test for sedative or stimulating activity; type: in vivo; settings: 60 minutes after administration, recorded 5 minutes
Description: as §1, with “Groups of 8 mice were treated with diazepam (1.5 mg/kg, 3 mg/kg p.o.), L-theanine (25 mg/kg, 50 mg/kg n=8), baicalein (25 mg/kg, 50 mg/kg, n=8) or L-theanine + baicalein, in a 1/1 ratio (25 mg/kg, 50 mg/kg, n=8) or a carrier (deionised water with propylene glycol at 0.5% p.o.). All the solutions contained propylene glycol at 0.5% as solubilising substance for diazepam.” left out
The EPM and the open field test were both video recorded using a high resolution video camera WV-CP244 (Panasonic). The videos were analysed using the TopScan Top View Animal Behaviour Analyzing System (version 1.00; Clever Sys Inc.) by an impartial person who has no knowledge of the treatment. […]

Row | Structure (SMILES) | time in percentage on the open arms [1] | percentage of time spent on the closed arms ([1]; 25 mg/kg p.o.) | number of entries to the open arms ([1]; diazepam 1.5 mg/kg p.o.) | percentage of time spent on the closed arms ([1]; diazepam 1.5 mg/kg p.o.) | sedation in the open field test ([2]; 1.5 mg/kg p.o.) | sedation in the open field test ([2]; 3 mg/kg p.o.)
1 | O=c1cc(-c2ccccc2)oc2cc(O)c(O)c(O)c12 [baicalein, 5,6,7-trihydroxy-2-phenyl-chromen-4-one] | did not show any increase | significant increase |  |  |  | 
2 | CCNC(=O)CC[C@H](N)C(=O)O [L-theanine, N-ethyl-L-glutamine] | did not show any increase | significant increase |  |  |  | 
3 | CN1C(=O)CN=C(c2ccccc2)c2cc(Cl)ccc21 [diazepam] |  |  | greater | significant increase | caused significant sedation | caused significant sedation
